# Assay results as given in patent US8759361B2, “2-phenoxy pyrimidinone analogues” (Neurogen Corporation, priority 2006, dated 2014).
# Biological target: T1, human capsaicin receptor (Homo sapiens, UniProt Q8NER1)
# T1 construct: expressed in transfected cells
# Assay: Calcium mobilization assay, determination of antagonist activity (Example 6)
# Format: cell-based
# Conditions: cells expressing human capsaicin receptor, capsaicin-induced fluorescence response; read-out: IC50
# Method: A cDNA encoding full length human capsaicin receptor (SEQ ID NO:1, 2 or 3 of U.S. Pat. No. 6,482,611) is subcloned in the plasmid pBK-CMV (Stratagene, La Jolla, Calif.) for recombinant expression in mammalian cells.
# Human embryonic kidney (HEK293) cells are transfected with the pBK-CMV expression construct encoding the full length human capsaicin receptor using standard methods. The transfected cells are selected for two weeks in media containing G418 (400 μg/ml) to obtain a pool of stably transfected cells. Independent clones are isolated from this pool by limiting dilution to obtain clonal stable cell lines for use in subsequent experiments.
# Cells transfected with expression plasmids (as described in Example 4) and thereby expressing human capsaicin receptor are seeded and grown to 70-90% confluency in FALCON black-walled, clear-bottomed 96-well plates (#3904, BECTON-DICKINSON, Franklin Lakes, N.J.). The culture medium is emptied from the 96 well plates and FLUO-3 AM calcium sensitive dye (Molecular Probes, Eugene, Oreg.) is added to each well (dye solution: 1 mg FLUO-3 AM, 440 μL DMSO and 440 μl 20% pluronic acid in DMSO, diluted 1:250 in Krebs-Ringer HEPES (KRH) buffer (25 mM HEPES, 5 mM KCl, 0.96 mM NaH2PO4, 1 mM MgSO4, 2 mM CaCl2, 5 mM glucose, 1 mM probenecid, pH 7.4), 50 μl diluted solution per well). Plates are covered with aluminum foil and incubated at 37° C. for 1-2 hours in an environment containing 5% CO2. After the incubation, the dye is emptied from the plates, and the cells are washed once with KRH buffer, and resuspended in KRH buffer.
# To measure the ability of a test compound to agonize or antagonize a calcium mobilization response in cells expressing capsaicin receptors to capsaicin or other vanilloid agonist, the EC50 of the agonist capsaicin is first determined. An additional 20 μl of KRH buffer and 1 μl DMSO is added to each well of cells, prepared as described above. 100 μl capsaicin in KRH buffer is automatically transferred by the FLIPR instrument to each well. Capsaicin-induced calcium mobilization is monitored using either FLUOROSKAN ASCENT (Labsystems; Franklin, Mass.) or FLIPR (fluorometric imaging plate reader system; Molecular Devices, Sunnyvale, Calif.) instruments. Data obtained between 30 and 60 seconds after agonist application are used to generate an 8-point concentration response curve, with final capsaicin concentrations of 1 nM to 3 μM. KALEIDAGRAPH software (Synergy Software, Reading, Pa.) is used to fit the data to the equation: y=a*(1/(1+(b/x)^c)) to determine the 50% excitatory concentration (EC50) for the response. In this equation, y is the maximum fluorescence signal, x is the concentration of the agonist or antagonist (in this case, capsaicin), a is the Emax, b corresponds to the EC50 value and c is the Hill coefficient. Determination of Agonist Activity
# Test compounds are dissolved in DMSO, diluted in 20 μl KRH buffer so that the final concentration of test compounds in the assay well is between 1 μM and 5 μM, and added to cells prepared as described above. The 96 well plates containing prepared cells and test compounds are incubated in the dark, at room temperature for 0.5 to 6 hours. It is important that the incubation not continue beyond 6 hours. Just prior to determining the fluorescence response, 100 μl capsaicin in KRH buffer at twice the EC50 concentration determined as described above is automatically added by the FLIPR instrument to each well of the 96 well plate for a final sample volume of 200 μl and a final capsaicin concentration equal to the EC50. The final concentration of test compounds in the assay wells is between 1 μM and 5 μM. […] The concentration of antagonist required to provide a 50% decrease, relative to the response observed in the presence of capsaicin and without antagonist, is the IC50 for the antagonist, and is preferably below 1 micromolar, 100 nanomolar, 10 nanomolar or 1 nanomolar.
# T1 sequence (Q8NER1 whole entry): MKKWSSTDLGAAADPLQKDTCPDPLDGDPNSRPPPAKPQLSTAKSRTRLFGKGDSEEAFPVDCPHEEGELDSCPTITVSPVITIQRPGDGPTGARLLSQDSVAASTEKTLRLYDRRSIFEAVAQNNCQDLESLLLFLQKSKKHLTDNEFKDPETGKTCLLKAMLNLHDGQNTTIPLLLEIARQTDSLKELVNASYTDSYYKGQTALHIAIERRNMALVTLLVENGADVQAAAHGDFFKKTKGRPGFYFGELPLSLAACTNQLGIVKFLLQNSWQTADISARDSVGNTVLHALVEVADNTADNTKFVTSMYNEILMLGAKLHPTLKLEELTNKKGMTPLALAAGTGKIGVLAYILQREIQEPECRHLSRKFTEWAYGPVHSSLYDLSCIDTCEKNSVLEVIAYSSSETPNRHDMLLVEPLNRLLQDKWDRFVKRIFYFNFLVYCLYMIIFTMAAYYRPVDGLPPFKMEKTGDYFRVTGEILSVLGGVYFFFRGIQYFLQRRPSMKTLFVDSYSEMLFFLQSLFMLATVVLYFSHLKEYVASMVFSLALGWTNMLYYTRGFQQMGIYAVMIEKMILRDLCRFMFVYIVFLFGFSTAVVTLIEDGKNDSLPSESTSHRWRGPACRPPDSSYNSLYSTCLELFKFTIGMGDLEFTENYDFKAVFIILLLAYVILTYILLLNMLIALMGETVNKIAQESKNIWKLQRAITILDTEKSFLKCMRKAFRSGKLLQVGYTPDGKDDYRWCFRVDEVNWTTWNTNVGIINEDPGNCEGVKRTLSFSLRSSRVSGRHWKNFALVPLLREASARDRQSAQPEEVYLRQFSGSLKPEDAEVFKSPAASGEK
row,IC50 [nM],Compound
1,≤ 100,"O=c1c2ncccc2nc(Oc2ccc(F)cc2F)n1-c1ccc(F)cc1 [Compound 31, 2-(2,4-difluorophenoxy)-3-(4-fluorophenyl)pyrido[3,2-d]pyrimidin-4(3H)-one]"
2,≤ 100,"Cn1cnc2c(=O)n(-c3ccc(F)cc3)c(Oc3cccc(C(F)(F)F)c3F)nc21 [Compound 43, 1-(4-fluorophenyl)-2-[2-fluoro-3-(trifluoromethyl)phenoxy]-9-methyl-1,9-dihydro-6H-purin-6-one]"
3,≤ 100,"Cn1cnc2c(=O)n(-c3ccc(Cl)cc3)c(Oc3ccc(F)c(F)c3F)nc21 [Compound 10, 1-(4-chlorophenyl)-9-methyl-2-(2,3,4-trifluorophenoxy)-1,9-dihydro-6H-purin-6-one]"
4,≤ 100,"Cn1cnc2c(=O)n(-c3ccc(Cl)cc3)c(Oc3ccc(C#N)c(F)c3F)nc21 [Compound 28, 4-{[1-(4-chlorophenyl)-9-methyl-6-oxo-6,9-dihydro-1H-purin-2-yl]oxy}-2,3-difluorobenzonitrile]"
5,≤ 100,"O=c1c2ncsc2nc(Oc2ccc(Cl)cc2F)n1-c1ccc(F)cc1 [Compound 38, 5-(4-chloro-2-fluorophenoxy)-6-(4-fluorophenyl)[1,3]thiazolo[5,4-d]pyrimidin-7(6H)-one]"
6,≤ 100,"O=c1c2ncsc2nc(Oc2cccc(F)c2F)n1-c1ccc(F)cc1 [Compound 34, 5-(2,3-difluorophenoxy)-6-(4-fluorophenyl)[1,3]thiazolo[5,4-d]pyrimidin-7(6H)-one]"
7,≤ 100,"CCn1cnc2c(=O)n(-c3ccc(F)cc3)c(Oc3ccc(F)c(F)c3F)nc21 [Compound 11, 9-ethyl-1-(4-fluorophenyl)-2-(2,3,4-trifluorophenoxy)-1,9-dihydro-6H-purin-6-one]"
8,≤ 100,"Cc1csc2c(=O)n(-c3ccc(F)cc3)c(Oc3c(F)ccc(F)c3F)nc12 [Compound 55, 3-(4-fluorophenyl)-7-methyl-2-(2,3,6-trifluorophenoxy)thieno[3,2-d]pyrimidin-4(3H)-one]"
9,≤ 100,"CCn1cnc2c(=O)n(-c3ccc(F)cc3)c(Oc3c(F)cc(F)cc3F)nc21 [Compound 9, 9-ethyl-1-(4-fluorophenyl)-2-(2,4,6-trifluorophenoxy)-1,9-dihydro-6H-purin-6-one]"

# Same assay, conditions: cells expressing human capsaicin receptor, capsaicin-induced fluorescence response; read-out: IC50 determined as described in Example 6
row,IC50 [nM],Compound
1,≤ 100,"Cn1cnc2c(=O)n(-c3ccc(C#N)nc3)c(Oc3cc(F)c(F)c(F)c3)nc21 [Compound 7, 5-(9-Methyl-6-oxo-2-(3,4,5-trifluorophenoxy)-6H-purin-1(9H)-yl)picolinonitrile]"

# Biological target: VR (Homo sapiens, UniProt Q8NER1)
# Assay: not given
# Conditions: binds to VR with no more than moderate affinity; cited from earlier work
# Sequence of VR (Q8NER1 whole entry): as above
row,Compound,Ki [nM]
1,Cl.Cl.Cl.Cl.Cl.Cl.N.N.N.N.N.N.N.N.N.N.N.N.N.N.[O-2].[O-2].[Ru+3].[Ru+3].[Ru+4] [ruthenium red],≥ 140000
